The values below come from patent US20100016324A1, “PHARMACEUTICAL COMPOSITIONS FOR THE TREATMENT OF CELLULITE” (MENARINI RICERCHE S.P.A., priority 2004, published 2010).

Series [1] concerns human adipocytes. Description: in vitro lipolysis test: glycerol release stimulated by 10 nM isoprenalin in cultured human adipocytes. Type of series: cell-based. The settings on record: Adipocyte, 15 min preincubation, 4 h, read-out: % INCREASE IN LIPOLYSIS
The procedure: Determination of extracellular glycerol produced by lipolysis of adipocyte triglycerides.
The in vitro lipolysis test was conducted on human adipocytes obtained from primary cultures of their progenitors, preadipocytes (Promocell), by inducing differentiation. The actual adipocyte differentiation was established by assaying glycerol-3-phosphate dehydrogenase (an enzyme expressed in mature adipocytes, but not in preadipocytes) and the lipids accumulated at intracellular level, with Oil Red O (Sigma).
The PDE3 inhibitors were preincubated with the adipocytes at various concentrations for 15 min; 10 nM of isoprenalin, able to induce weak stimulation of lipolysis (25% of the maximum response obtained with isoprenalin 1 μM), was then added. After 4 h the culture medium was removed, and […].
Lipolytic activity was evaluated by determining the glycerol released into the extracellular medium following triglyceride hydrolysis.
Effect of Some PDE Inhibitors on Glycerol Release, Stimulated by 10 nM Isoprenalin, in Cultured Human Adipocytes

For series [2], the system named is cellulite in the upper outer part of the thighs. The series can be described thus: In vivo test: thigh circumference in healthy female adults with cellulite, cream vs base cream. Set-up: species or system human. The settings on record: cream with 1% Milrinone, topical, twice a day for 2 months, 10 healthy female adults. The procedure:
10 healthy female adults presenting evident cellulite in the upper outer part of the thighs were examined. Each patient served as her own control for evaluation of efficacy and safety. […] Treatment with approx. 2-3 cm of cream, massaged in for 2-3 minutes until absorbed, was repeated twice a day every day for 2 months. […] The circumference of each thigh was measured periodically, two-thirds of the way between the knee and the greater trochanter, until the end of treatment. The reduction in circumference of the pharmacologically treated thigh compared with the untreated thigh was 2.9±0.7 cm, with a range of 1.3-4.7 cm.

A short description of series [3]: Determination of the compound in the blood at the end of the observation period. Format: in vivo, human. The settings on record: after topical cream with 1% Milrinone twice a day for 2 months. The procedure:
10 healthy female adults presenting evident cellulite in the upper outer part of the thighs were examined.
Each patient served as her own control for evaluation of efficacy and safety. The cream containing the active constituent (1% Milrinone) was spread on the outer part of one thigh, while the base cream (without the active constituent) was spread in the same area of the other thigh, in a randomised manner.
Treatment with approx. 2-3 cm of cream, massaged in for 2-3 minutes until absorbed, was repeated twice a day every day for 2 months.

On to `Nc1cc(-c2ccncc2)c[nH]c1=O` [Amrinone], for which, in series [1], the activation at 10 µM stood at 20 ± 6%.

Consider `Cn1c(=O)c2[nH]cnc2n(C)c1=O` [Theophylline, theophylline], for which, in series [1], the activation at 10 µM is 5 ± 4%. On the same count and under the same terms, as for `CSc1ccc(C(=O)c2[nH]c(=O)[nH]c2C)cc1` [Enoximone, enoximone], the figure is 65 ± 4%; as for `O=C1CN2Cc3c(ccc(Cl)c3Cl)N=C2N1` [Anagrelide, anagrelide], 114 ± 11%. In the case of `Cc1[nH]c(=O)c(C#N)cc1-c1ccncc1` [Milrinone, milrinone], the “reduction in circumference of the pharmacologically treated thigh compared with the untreated thigh” value in series [2] (mean ± spread) came to 2.9±0.7 cm. Also, the “reduction in circumference of the pharmacologically treated thigh compared with the untreated thigh, range” value in series [2] (range across patients) is on record as 1.3-4.7 cm. Moreover, the “presence of the compound in the blood” value in series [3] is reported as “did not detect the presence of the compound”. Also, the activation at 10 µM in series [1] was 151 ± 16%. In the case of `COc1cc2c(cc1OC)-c1c/c(=N\c3c(C)cc(C)cc3C)n(C)c(=O)n1CC2` [Trequinsin, trequinsin], in series [1], the activation at 10 µM stood at 276 ± 59%.

Consider `Cn1c(=O)c2c(ncn2C)n(C)c1=O` [Caffeine, caffeine], for which the activation at 10 µM in series [1] was determined as 10 ± 5%.

For the molecule `O=C1CCc2cc(OCCCCc3nnnn3C3CCCCC3)ccc2N1` [Cilostazol, cilostazol], the activation at 10 µM in series [1] came out at 31 ± 9%. For `COc1ccc(-c2nc3ccc(C4=NNC(=O)CC4C)cc3[nH]2)cc1` (stereo not drawn) [Pimobendan, pimobendan], in series [1], the activation at 10 µM is 159 ± 22%.
